Test results published in patent publication US12612409B2, “Pyrrolopyrimidines as CFTR potentiators” (Cystic Fibrosis Foundation, priority 2016, dated 2026).
pEC50: −log10 of the molar value.

Key:
[1] = target: T1, recombinant F508del V470 CFTR in Fischer rat thyroid (FRT) cells (Homo sapiens, UniProt P13569, DEL508-508); test: FRT ion flux assay of F508del CFTR potentiation; assay type: cell-based; conditions: FRT cells expressing F508del V470 CFTR, forskolin 20 uM, 27° C. pre-incubation
T1 construct: expressed in transfected cells
T1 sequence (P13569 with tags, fused parts or gaps DEL508-508): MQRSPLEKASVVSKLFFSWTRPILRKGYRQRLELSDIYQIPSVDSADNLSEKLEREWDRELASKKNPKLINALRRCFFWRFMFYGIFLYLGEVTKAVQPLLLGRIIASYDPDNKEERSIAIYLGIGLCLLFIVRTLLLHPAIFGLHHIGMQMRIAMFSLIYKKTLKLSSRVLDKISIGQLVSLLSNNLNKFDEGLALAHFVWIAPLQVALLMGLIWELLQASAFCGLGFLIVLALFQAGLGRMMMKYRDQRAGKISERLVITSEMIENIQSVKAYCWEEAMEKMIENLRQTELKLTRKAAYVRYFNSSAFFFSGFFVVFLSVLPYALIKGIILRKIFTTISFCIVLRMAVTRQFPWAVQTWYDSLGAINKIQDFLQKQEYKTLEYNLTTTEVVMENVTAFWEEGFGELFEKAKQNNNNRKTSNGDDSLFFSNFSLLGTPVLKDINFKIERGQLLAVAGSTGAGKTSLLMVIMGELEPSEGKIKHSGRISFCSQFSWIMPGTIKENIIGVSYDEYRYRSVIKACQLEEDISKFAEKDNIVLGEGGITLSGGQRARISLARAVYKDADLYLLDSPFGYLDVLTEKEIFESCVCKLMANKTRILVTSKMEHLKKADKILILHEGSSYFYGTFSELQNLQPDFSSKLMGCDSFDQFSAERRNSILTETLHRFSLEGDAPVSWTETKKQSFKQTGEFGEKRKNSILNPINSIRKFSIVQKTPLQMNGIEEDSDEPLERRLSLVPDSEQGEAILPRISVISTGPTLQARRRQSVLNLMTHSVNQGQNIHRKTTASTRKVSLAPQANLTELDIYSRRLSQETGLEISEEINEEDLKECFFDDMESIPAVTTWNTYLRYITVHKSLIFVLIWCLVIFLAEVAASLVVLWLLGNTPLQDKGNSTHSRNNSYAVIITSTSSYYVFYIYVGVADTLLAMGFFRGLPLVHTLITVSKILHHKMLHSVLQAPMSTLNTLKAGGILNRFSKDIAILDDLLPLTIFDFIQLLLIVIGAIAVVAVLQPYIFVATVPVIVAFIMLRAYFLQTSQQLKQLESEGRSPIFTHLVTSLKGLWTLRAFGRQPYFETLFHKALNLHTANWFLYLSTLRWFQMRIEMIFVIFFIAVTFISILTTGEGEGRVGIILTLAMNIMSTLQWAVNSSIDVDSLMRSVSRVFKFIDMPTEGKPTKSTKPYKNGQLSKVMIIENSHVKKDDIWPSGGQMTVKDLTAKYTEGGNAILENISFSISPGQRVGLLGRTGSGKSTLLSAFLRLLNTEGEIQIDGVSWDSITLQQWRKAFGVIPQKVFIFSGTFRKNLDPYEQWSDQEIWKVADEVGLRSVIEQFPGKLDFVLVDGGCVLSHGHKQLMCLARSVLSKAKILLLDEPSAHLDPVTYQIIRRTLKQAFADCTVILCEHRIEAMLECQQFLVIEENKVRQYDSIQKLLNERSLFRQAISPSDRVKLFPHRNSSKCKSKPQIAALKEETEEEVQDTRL
In short: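 FRT cells co-expressing F508del V470 CFTR and halide-sensitive YFP, temperature-corrected at 27° C for 16-24 h, then treated 30 min with compound plus 20 uM forskolin. Iodide addition quenches YFP, read after ~21 s; ratio scaled to DMSO (0%) and positive control potentiator (100%).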

[2] = target: T2, CFTR in G551D/F508del primary CF hBE cells (Homo sapiens, UniProt P13569, G551D); test: Ussing chamber electrophysiology assay of CFTR potentiation in G551D/F508del CF bronchial epithelial cells (35° C.); assay type: cell-based; conditions: G551 D/F508del Ussing chamber assay at 35 degrees Celsius
T2 construct: Primary cystic fibrosis human bronchial epithelial (CF hBE) cells were expanded and cultured; endogenous in cells; host or cells: primary CF human bronchial epithelial cells, genotype G551D/F508del
T2 sequence (P13569 whole entry F508del/G551D): as the sequence (P13569 with tags, fused parts or gaps DEL508-508) above, with G550D counted along it
Source text: • SHELXTL, Version 5.1, Bruker AXS, 1997. • PLATON, A. L. Spek, J. Appl. Cryst. 2003, 36, 7-13. • MERCURY, C. F. Macrae, P. R. Edington, P. McCabe, E. Pidcock, G. P. Shields, R. Taylor, M. Towler and J. van de Streek, J. Appl. Cryst. 39, 453-457, 2006. • OLEX2, Dolomanov, O. V.; Bourhis, L. J.; Gildea, R. J.; Howard, J. A. K.; Puschmann, H., (2009). J. Appl. Cryst., 42, 339-341. • R. W. W. Hooft et al. J. Appl. Cryst. (2008). 41. 96-103. • H. D. Flack, Acta Cryst. 1983, A39, 867-881. Using Chamber Electrophysiology Assay of CFTR Potentiation in CF Bronchial Epithelial Cells
Primary cystic fibrosis human bronchial epithelial (CF hBE) cells were expanded and cultured according to published methods (Neuberger et al., Ch. 4 of Cystic Fibrosis, Methods in Molecular Biology vol. 741, pp. 39-54 (2011)). Well-differentiated cells (>30 days at air/liquid interface) on Snapwell filters (Corning Costar, cat. no. 3801) were mounted in Ussing chambers (Physiologic Instruments, Inc., San Diego, CA). […] HEPES buffered physiological saline (composition (in mM): 137 NaCl, 4 KCl, 1 MgCl2, 1.8 CaCl2), 10 HEPES Na) was used in both apical and basolateral chambers. Chambers were bubbled with air to promote mixing and the voltage was clamped to zero. Amiloride (30 uM), forskolin (10 uM), test compound (4 increasing concentrations), and CFTRinh-172 (20 uM) were added sequentially with 20-25 minutes between additions. Short-circuit currents were acquired and analyzed using LabScribe2. Test compound responses were scaled relative to responses for DMSO (0%) and the maximal response of a positive control potentiator (100%).

[3] = target: T3, CFTR in F508del/F508del primary CF hBE cells (Homo sapiens, UniProt P13569, DEL508-508); test: Ussing chamber electrophysiology assay of CFTR potentiation in F508del/F508del CF bronchial epithelial cells (27° C.); assay type: cell-based
T3 construct: Primary cystic fibrosis human bronchial epithelial (CF hBE) cells were expanded and cultured; endogenous in cells; host or cells: primary CF human bronchial epithelial cells, genotype F508del/F508del
T3 sequence (P13569 with tags, fused parts or gaps DEL508-508): as the sequence (P13569 with tags, fused parts or gaps DEL508-508) above
In short: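 Well-differentiated primary CF hBE cells (>30 days air/liquid interface) in Ussing chambers, HEPES saline both sides, voltage clamped to zero. Amiloride 30 uM, forskolin 10 uM, four rising compound concentrations, then CFTRinh-172 20 uM added at 20-25 min intervals. Short-circuit current scaled to DMSO (0%) and a positive control potentiator maximum (100%).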

[4] = test system: G551 D patients; conditions: cited from earlier work
[5] = test system: F508del homozygote patients; conditions: cited from earlier work

SMILES | pEC50 [1] | pEC50 [2] | pEC50 [3] | frequency of pulmonary exacerbations [4] | lung function, percent predicted FEV1 increased [4] | weight [4] | improvement on monotherapy [5]
CC[C@@H](c1cn(-c2ccc(F)cc2F)nn1)n1cc(-c2cnc(C(F)(F)F)nc2)c2c(N)ncnc21 (single isomer, unassigned) [Example 161] | 8.07 | 6.52 | 7.96 | – | – | – | –
CC(C)(C)c1cc(C(C)(C)C)c(NC(=O)c2c[nH]c3ccccc3c2=O)cc1O [Kalydeco, ivacaftor] | – | – | – | reduced the frequency of pulmonary exacerbations | 10-13% | allowed weight gain | did not lead to any appreciable improvement
CCC(c1cn(-c2ccc(F)cc2F)nn1)n1cc(-c2cncnc2OC)c2c(N)ncnc21 (single isomer, unassigned; enantiomer 2) [Example 160, (−) 7-{1-[1-(2,4-Difluorophenyl)-1H-1,2,3-triazol-4-yl]propyl}-5-(4-methoxypyrimidin-5-yl)-7H-pyrrolo[2,3-d]pyrimidin-4-amine, enantiomer 2] | 6.35 | – | 6.23 | – | – | – | –
COc1ncccc1-c1cn(Cc2cn(-c3ccccc3F)nn2)c2ncnc(N)c12 [Example 210, 7-{[1-(2-Fluorophenyl)-1H-1,2,3-triazol-4-yl]methyl}-5-(2-methoxy-pyridin-3-yl)-7H-pyrrolo[2,3-d]pyrimidin-4-amine] | 6.91 | – | 6.80 | – | – | – | –
CCC(c1cn(-c2cccc(F)c2F)nn1)n1cc(-c2cc(F)cnc2OC)c2c(N)ncnc21 (single isomer, unassigned; enantiomer 1) [Example 169, 7-{1-[1-(2,3-Difluorophenyl)-1H-1,2,3-triazol-4-yl]propyl}-5-(5-fluoro-2-methoxypyridin-3-yl)-7H-pyrrolo[2,3-d]pyrimidin-4-amine, enantiomer 1] | 8.10 | – | 8.31 | – | – | – | –
CCC(c1cn(-c2cc(F)ccc2F)nn1)n1cc(-c2cnc(C(F)(F)F)nc2)c2c(N)ncnc21 (single isomer, unassigned) [Example 186, 7-{1-[1-(2,5-difluorophenyl)-1H-1,2,3-triazol-4-yl]propyl}-5-[2-(trifluoromethyl)pyrimidin-5-yl]-7H-pyrrolo[2,3-d]pyrimidin-4-amine] | 6.20 | – | 6.53 | – | – | – | –

More lines, main results first:

pEC50 [1] | pEC50 [2] | pEC50 [3] | SMILES | frequency of pulmonary exacerbations [4] | lung function, percent predicted FEV1 increased [4] | weight [4] | improvement on monotherapy [5]
6.44 | 5.07 | 6.47 | CC[C@H](c1cn(-c2ccc(F)cc2F)nn1)n1cc(-c2cnc(C(F)(F)F)nc2)c2c(N)ncnc21 (single isomer, unassigned) [Example 162] | – | – | – | –
7.87 | 6.08 | 7.54 | CCC(c1cn(-c2ccccc2F)nn1)n1cc(-c2cncnc2OC)c2c(N)ncnc21 (single isomer, unassigned; enantiomer 2) [Example 134, (+) 7-{1-[1-(2-Fluorophenyl)-1H-1,2,3-triazol-4-yl]propyl}-5-(4-methoxypyrimidin-5-yl)-7H-pyrrolo[2,3-d]pyrimidin-4-amine, enantiomer 2] | – | – | – | –
6.47 | – | 7.35 | CC(C)(c1cn(-c2ccccc2F)nn1)n1cc(-c2ccc(Cl)cc2)c2c(N)ncnc21 [Example 256, 5-(4-Chlorophenyl)-7-{2-[1-(2-fluorophenyl)-1H-1,2,3-triazol-4-yl]propan-2-yl}-7H-pyrrolo[2,3-d]pyrimidin-4-amine] | – | – | – | –
6.76 | – | 6.91 | CC(c1cc(-c2ccccc2F)no1)n1cc(-c2ccc(-c3ncns3)cc2)c2c(N)ncnc21 (stereo not shown) [Example 107, 7-{1-[3-(2-Fluorophenyl)-1,2-oxazol-5-yl]ethyl}-5-[4-(1,2,4-thiadiazol-5-yl)phenyl]-7H-pyrrolo[2,3-d]pyrimidin-4-amine] | – | – | – | –
